Laboratory results as given in ChEMBL document CHEMBL3421577, “Discovery and biological evaluation of tetrahydrothieno[2,3-c]pyridine derivatives as selective metabotropic glutamate receptor 1 antagonists for the potential treatment of neuropathic pain” (Eur J Med Chem, 2015).
The source made the active and inactive calls. The calls are words filed in the database; no cut-off is given here.

How the values were obtained:
[1] = Metabolic stability in human liver microsomes assessed as compound remaining at 1 uM after 30 mins by LC-MS/MS analysis in presence of NADPH; assay type: ADME; conditions: read-out: Stability
[2] = molecular target: T1, Metabotropic glutamate receptor 5 (Homo sapiens, UniProt P41594); experiment: Antagonist activity at human mGluR5 expressed in human embryonic kidney cells assessed as inhibition of L-glutamate-induced calcium release at 10 uM by calcium-5 reagent-based fluorescence assay relative to control; assay type: functional, cell-based
CYP1A2 = molecular target: T2, CYP1A2 (Homo sapiens, UniProt P05177); experiment: Inhibition of recombinant human CYP1A2 assessed as remaining activity at 10 uM preincubated for 5 mins followed by substrate and NADP addition measured after 20 mins by fluorescence assay relative to control; assay type: ADME; conditions: read-out: Activity
T2 sequence (P05177 whole entry): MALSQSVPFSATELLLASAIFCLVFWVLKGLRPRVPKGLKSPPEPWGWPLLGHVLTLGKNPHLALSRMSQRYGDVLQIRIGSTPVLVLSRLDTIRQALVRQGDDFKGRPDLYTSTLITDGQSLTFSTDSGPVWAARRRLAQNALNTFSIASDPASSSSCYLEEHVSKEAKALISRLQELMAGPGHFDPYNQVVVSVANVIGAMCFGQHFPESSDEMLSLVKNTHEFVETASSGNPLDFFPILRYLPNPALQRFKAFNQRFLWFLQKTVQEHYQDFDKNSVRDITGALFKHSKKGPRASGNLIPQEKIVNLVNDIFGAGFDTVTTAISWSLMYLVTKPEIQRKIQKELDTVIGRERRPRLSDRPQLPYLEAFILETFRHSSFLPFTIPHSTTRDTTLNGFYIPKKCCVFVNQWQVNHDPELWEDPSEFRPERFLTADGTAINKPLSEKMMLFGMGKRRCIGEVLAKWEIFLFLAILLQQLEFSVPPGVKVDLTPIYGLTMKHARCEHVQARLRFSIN

CYP2C9 = CYP2C9 (Homo sapiens, UniProt P11712); experiment: Inhibition of recombinant human CYP2C9 assessed as remaining activity at 10 uM preincubated for 5 mins followed by substrate and NADP addition measured after 20 mins by fluorescence assay relative to control; assay type: ADME; conditions: read-out: Activity
CYP2C9, sequence (P11712 whole entry): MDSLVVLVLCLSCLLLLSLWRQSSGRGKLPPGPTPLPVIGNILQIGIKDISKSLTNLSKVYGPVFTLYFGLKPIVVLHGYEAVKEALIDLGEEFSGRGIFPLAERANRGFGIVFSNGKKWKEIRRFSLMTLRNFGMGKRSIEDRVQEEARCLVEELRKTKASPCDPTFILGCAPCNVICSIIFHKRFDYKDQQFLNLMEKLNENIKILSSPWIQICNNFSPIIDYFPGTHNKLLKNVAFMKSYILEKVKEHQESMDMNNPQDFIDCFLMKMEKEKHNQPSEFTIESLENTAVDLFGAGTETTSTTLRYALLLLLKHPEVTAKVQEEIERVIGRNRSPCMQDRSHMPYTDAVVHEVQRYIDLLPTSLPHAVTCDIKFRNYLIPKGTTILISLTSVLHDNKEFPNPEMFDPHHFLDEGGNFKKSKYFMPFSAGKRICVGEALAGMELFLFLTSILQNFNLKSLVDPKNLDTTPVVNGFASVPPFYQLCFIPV

CYP2C19 = CYP2C19 (Homo sapiens, UniProt P33261); experiment: Inhibition of recombinant human CYP2C19 assessed as remaining activity at 10 uM preincubated for 5 mins followed by substrate and NADP addition measured after 20 mins by fluorescence assay relative to control; assay type: ADME; conditions: read-out: Activity
CYP2C19, sequence (P33261 whole entry): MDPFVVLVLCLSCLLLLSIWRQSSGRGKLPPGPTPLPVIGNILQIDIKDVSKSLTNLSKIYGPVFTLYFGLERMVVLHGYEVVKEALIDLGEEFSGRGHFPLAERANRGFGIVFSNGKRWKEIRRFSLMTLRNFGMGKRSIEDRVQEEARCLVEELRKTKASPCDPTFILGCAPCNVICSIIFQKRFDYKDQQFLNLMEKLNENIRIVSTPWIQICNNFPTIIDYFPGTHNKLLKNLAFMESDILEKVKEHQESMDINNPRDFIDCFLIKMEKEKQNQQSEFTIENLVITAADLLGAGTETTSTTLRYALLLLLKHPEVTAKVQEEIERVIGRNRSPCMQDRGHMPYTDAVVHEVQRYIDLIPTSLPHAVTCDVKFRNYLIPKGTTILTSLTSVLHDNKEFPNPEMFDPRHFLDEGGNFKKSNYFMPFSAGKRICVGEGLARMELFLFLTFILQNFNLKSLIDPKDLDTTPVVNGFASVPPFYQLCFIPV

[3] = molecular target: T3, Metabotropic glutamate receptor 1 (Homo sapiens, UniProt Q13255); experiment: Antagonist activity at human mGluR1 expressed in human Chem-3 cells assessed as inhibition of L-glutamate-induced calcium release by calcium-5 reagent-based fluorescence assay; assay type: functional, cell-based
Target sequence in this assay (Q13255 whole entry): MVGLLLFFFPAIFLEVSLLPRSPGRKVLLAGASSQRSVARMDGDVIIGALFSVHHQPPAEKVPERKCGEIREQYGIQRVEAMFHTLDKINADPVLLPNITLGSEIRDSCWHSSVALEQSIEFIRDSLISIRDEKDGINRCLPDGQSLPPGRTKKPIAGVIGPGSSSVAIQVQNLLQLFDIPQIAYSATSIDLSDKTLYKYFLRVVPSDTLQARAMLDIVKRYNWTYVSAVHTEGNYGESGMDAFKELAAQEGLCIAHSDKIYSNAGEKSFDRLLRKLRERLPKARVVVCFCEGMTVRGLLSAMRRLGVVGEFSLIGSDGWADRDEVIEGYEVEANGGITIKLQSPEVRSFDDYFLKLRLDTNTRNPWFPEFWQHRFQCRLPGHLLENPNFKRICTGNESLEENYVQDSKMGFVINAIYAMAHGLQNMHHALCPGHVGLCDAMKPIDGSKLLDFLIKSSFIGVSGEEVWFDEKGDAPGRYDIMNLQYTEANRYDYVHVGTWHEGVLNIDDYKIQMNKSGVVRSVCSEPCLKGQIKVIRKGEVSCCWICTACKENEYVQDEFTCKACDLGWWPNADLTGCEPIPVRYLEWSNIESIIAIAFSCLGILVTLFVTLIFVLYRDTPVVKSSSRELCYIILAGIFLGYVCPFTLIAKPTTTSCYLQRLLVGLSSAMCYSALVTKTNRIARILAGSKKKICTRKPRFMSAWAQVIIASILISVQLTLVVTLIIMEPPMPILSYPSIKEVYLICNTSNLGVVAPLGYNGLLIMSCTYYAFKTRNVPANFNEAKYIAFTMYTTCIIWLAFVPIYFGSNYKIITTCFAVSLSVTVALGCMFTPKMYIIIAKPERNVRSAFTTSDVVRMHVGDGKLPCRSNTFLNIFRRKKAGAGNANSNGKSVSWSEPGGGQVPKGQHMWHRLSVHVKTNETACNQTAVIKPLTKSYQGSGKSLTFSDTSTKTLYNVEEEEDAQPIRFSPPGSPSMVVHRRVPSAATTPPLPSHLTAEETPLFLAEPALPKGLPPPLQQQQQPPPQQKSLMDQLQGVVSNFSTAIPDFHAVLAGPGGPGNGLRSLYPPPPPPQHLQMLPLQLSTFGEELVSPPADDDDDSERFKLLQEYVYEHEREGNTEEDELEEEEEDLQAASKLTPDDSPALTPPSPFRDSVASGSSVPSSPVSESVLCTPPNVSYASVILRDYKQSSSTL

CYP3A4 = CYP3A4 (Homo sapiens, UniProt P08684); experiment: Inhibition of recombinant human CYP3A4 assessed as remaining activity at 10 uM preincubated for 5 mins followed by substrate and NADP addition measured after 20 mins by fluorescence assay relative to control; assay type: ADME; conditions: read-out: Activity
CYP3A4, sequence (P08684 whole entry): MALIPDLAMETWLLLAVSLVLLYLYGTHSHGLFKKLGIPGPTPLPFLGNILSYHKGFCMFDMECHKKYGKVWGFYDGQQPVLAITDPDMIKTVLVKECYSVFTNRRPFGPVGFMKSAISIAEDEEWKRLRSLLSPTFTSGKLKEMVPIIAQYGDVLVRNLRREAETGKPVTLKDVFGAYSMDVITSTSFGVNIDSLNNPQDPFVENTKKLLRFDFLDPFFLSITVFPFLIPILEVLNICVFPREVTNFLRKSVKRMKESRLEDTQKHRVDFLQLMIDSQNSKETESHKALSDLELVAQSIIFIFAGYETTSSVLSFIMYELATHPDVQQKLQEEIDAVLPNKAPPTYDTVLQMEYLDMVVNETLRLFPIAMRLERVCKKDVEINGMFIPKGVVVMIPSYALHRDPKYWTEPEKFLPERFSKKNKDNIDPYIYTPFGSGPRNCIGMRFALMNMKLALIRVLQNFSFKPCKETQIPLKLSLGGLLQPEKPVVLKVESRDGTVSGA

[4] = molecular target: T3, Metabotropic glutamate receptor 1; experiment: Antagonist activity at human mGluR1 expressed in human Chem-3 cells assessed as inhibition of L-glutamate-induced calcium release at 10 uM by calcium-5 reagent-based fluorescence assay relative to control; assay type: functional, cell-based
Target sequence in this assay (Q13255 19-1194 limits assumed): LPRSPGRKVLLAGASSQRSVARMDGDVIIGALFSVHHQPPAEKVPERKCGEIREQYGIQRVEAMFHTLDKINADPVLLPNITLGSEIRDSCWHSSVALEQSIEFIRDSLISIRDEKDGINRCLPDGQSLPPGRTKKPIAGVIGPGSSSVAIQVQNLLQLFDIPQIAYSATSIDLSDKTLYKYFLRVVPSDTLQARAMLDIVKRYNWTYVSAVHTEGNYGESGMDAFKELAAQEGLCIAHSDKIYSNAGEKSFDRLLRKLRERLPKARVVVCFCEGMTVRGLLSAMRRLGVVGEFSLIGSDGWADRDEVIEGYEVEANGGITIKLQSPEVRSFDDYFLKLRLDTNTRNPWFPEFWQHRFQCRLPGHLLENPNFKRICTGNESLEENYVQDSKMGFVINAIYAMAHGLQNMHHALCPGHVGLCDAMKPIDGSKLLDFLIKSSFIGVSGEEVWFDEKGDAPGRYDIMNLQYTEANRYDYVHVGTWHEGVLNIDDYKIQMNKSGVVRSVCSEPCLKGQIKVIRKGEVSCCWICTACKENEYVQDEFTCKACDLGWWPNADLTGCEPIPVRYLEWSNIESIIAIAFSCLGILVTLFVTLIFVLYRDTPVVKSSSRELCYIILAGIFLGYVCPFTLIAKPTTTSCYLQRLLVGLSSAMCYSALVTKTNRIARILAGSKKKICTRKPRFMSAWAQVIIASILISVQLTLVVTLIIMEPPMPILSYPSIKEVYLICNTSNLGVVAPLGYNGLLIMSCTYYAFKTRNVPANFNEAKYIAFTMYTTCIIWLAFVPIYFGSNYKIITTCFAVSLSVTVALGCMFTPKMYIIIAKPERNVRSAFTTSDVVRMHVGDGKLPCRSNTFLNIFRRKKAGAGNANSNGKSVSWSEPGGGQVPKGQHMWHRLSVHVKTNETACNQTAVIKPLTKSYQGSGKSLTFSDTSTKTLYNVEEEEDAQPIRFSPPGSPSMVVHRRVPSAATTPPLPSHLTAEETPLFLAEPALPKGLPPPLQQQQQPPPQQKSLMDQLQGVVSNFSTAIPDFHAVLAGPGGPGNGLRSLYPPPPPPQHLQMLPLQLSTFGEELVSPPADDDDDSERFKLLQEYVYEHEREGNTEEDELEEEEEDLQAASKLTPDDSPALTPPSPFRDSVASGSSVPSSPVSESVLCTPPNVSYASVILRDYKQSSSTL

CYP2D6 = CYP2D6 (Homo sapiens, UniProt P10635); experiment: Inhibition of recombinant human CYP2D6 assessed as remaining activity at 10 uM preincubated for 5 mins followed by substrate and NADP addition measured after 20 mins by fluorescence assay relative to control; assay type: ADME; conditions: read-out: Activity
[5] = molecular target: T1, Metabotropic glutamate receptor 5; experiment: Antagonist activity at human mGluR5 expressed in human embryonic kidney cells assessed as inhibition of L-glutamate-induced calcium release by calcium-5 reagent-based fluorescence assay; assay type: functional, cell-based
Target sequence in this assay (P41594 whole entry): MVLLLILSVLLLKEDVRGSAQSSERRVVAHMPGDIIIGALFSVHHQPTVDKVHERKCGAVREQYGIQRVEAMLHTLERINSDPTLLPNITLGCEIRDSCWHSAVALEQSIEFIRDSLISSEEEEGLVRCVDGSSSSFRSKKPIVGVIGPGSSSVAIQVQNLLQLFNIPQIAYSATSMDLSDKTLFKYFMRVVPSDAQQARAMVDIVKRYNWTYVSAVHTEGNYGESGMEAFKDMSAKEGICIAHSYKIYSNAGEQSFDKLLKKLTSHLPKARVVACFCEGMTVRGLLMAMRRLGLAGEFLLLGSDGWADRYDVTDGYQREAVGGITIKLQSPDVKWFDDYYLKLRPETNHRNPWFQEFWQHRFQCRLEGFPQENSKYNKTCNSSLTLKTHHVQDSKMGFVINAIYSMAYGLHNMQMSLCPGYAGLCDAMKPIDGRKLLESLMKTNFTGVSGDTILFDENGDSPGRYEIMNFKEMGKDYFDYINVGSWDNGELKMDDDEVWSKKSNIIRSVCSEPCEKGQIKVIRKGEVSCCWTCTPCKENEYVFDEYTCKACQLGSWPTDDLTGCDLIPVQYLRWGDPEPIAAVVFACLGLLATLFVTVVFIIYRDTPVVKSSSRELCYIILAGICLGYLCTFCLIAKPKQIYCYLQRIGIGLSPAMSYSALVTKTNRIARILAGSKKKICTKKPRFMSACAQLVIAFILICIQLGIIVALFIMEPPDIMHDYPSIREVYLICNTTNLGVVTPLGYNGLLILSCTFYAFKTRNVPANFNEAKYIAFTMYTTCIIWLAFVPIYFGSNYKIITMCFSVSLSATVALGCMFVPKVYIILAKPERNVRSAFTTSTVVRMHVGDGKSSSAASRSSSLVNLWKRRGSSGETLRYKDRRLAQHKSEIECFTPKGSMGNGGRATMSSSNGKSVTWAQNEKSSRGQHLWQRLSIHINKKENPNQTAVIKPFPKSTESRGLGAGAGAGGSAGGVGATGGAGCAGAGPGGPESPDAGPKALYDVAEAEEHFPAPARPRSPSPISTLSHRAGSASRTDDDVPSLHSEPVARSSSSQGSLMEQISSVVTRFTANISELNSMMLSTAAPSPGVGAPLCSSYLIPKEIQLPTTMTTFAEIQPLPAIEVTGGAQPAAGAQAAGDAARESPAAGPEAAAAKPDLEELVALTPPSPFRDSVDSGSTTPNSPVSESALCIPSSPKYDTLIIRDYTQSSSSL

Rattus norvegicus [6] = experiment: Analgesic activity in rat spinal nerve ligation model of neuropathic pain assessed as recovery from cold allodynia at 100 mg/kg, po administered on day 14 post ligation surgery measured after 1 hr relative to control; assay type: functional
Rattus norvegicus [7] = experiment: Analgesic activity in rat spinal nerve ligation model of neuropathic pain assessed as recovery from mechanical allodynia at 100 mg/kg, po administered on day 14 post ligation surgery measured after 3 hrs relative to control; assay type: functional

Row | Compound | inhibition [2] | IC50 [3] | inhibition [4] | further results
1 | N#Cc1c(NCc2ccc(F)cc2)sc2c1CCN(C(=O)c1ccccc1)C2 | 26.4% | 1810 nM | 77.8% | remaining at 0.5 h, 1 µM [1]: 33.4%; activity at 20 min, 10 µM (CYP1A2): 52%; activity at 20 min, 10 µM (CYP2C9): 5.48%; activity at 20 min, 10 µM (CYP2C19): 3.81%; activity at 20 min, 10 µM (CYP3A4): 24.2%; activity at 20 min, 10 µM (CYP2D6): 36.4%
2 | Cc1cc(C(=O)N2CCc3c(sc(NCc4ccc(Cl)cc4)c3C#N)C2)[nH]n1 | 31.2% |  | 40.9% | 
3 | Cc1cc(C(=O)N2CCc3c(sc(NC(=O)c4ccc(Cl)cc4)c3C#N)C2)[nH]n1 | -2.15% |  | 42.2% | 
4 | Cc1cc(C(=O)N2CCc3c(sc(NCc4ccc(F)cc4)c3C#N)C2)[nH]n1 | 37.6% | 2450 nM | 84.2% | 
5 | CC(C)c1cc(C(=O)N2CCc3c(sc(NC(=O)c4ccc(F)cc4)c3C#N)C2)[nH]n1 | -2.3% |  | 28.5% | 
6 | CC(C)c1cc(C(=O)N2CCc3c(sc(NCc4ccc(Cl)cc4)c3C#N)C2)[nH]n1 | 24.8% |  | 46.3% | 
7 | N#Cc1c(NCc2ccccc2)sc2c1CCN(C(=O)c1ccccc1)C2 | 46% | 2820 nM | 66.4% | 
8 | CC(C)c1cc(C(=O)N2CCc3c(sc(NC(=O)c4ccc(Cl)cc4)c3C#N)C2)[nH]n1 | -4.28% | 12200 nM | 62.5% | 
9 | N#Cc1c(NCc2ccccc2)sc2c1CCN(C(=O)c1cccc(F)c1)C2 | 29.8% | 2900 nM | 79% | 
10 | Cc1cc(C(=O)N2CCc3c(sc(NC(=O)c4ccc(F)cc4)c3C#N)C2)[nH]n1 | 13.7% |  | 31% | 
11 | COc1cccc(CNc2sc3c(c2C#N)CCN(C(=O)c2ccc(F)cc2)C3)c1 | 31.1% | 3090 nM | 67.5% | remaining at 0.5 h, 1 µM [1]: 12.1%; activity at 20 min, 10 µM (CYP1A2): 78.5%; activity at 20 min, 10 µM (CYP2C9): 6.46%; activity at 20 min, 10 µM (CYP2C19): 7.99%; activity at 20 min, 10 µM (CYP3A4): 12.5%; activity at 20 min, 10 µM (CYP2D6): 35%
12 | COc1ccc(C(=O)Nc2sc3c(c2C#N)CCN(C(=O)c2cc(C)n[nH]2)C3)cc1 | 28.3% |  | -9.58% | 
13 | Cc1ccc(C(=O)N2CCc3c(sc(NCc4cccc(F)c4)c3C#N)C2)cc1 | 54.8% |  | 43.9% | 
14 | N#Cc1c(NCc2ccccc2)sc2c1CCN(C(=O)c1ccn[nH]1)C2 | 4.48% | 1090 nM | 94.9% | 
15 | COc1ccc(C(=O)N2CCc3c(sc(NCc4ccc(F)cc4)c3C#N)C2)cc1 | 68% |  | 47.7% | IC50 [5]: 1430 nM
16 | COc1ccc(C(=O)Nc2sc3c(c2C#N)CCN(C(=O)c2cc(C(C)C)n[nH]2)C3)cc1 | 63.1% |  | -6.42% | IC50 [5]: 4830 nM
17 | NCC1(CC(=O)O)CCCCC1 [GABAPENTIN] |  |  |  | Activity (Rattus norvegicus [6]): 40%; Activity (Rattus norvegicus [7]): 80%
18 | N#Cc1c(NCc2ccccc2)sc2c1CCN(C(=O)c1cnccc1F)C2 | 16% | 1240 nM | 90.1% | 

Row | Compound | inhibition [2] | IC50 [3] | inhibition [4] | further results
19 | Cc1cccc(C(=O)N2CCc3c(sc(NCc4ccccc4)c3C#N)C2)c1 | 8.8% | 3140 nM | 73.5% | remaining at 0.5 h, 1 µM [1]: 16.4%; activity at 20 min, 10 µM (CYP1A2): 42.6%; activity at 20 min, 10 µM (CYP2C9): 4.33%; activity at 20 min, 10 µM (CYP2C19): 4.57%; activity at 20 min, 10 µM (CYP3A4): 9.36%; activity at 20 min, 10 µM (CYP2D6): 35.7%
20 | CC(C)c1cc(C(=O)N2CCc3c(sc(NCc4ccccc4)c3C#N)C2)[nH]n1 | 8.89% | 43200 nM | 54.4% | 
21 | Cc1cc(C(=O)N2CCc3c(sc(NC(=O)c4ccccc4)c3C#N)C2)[nH]n1 | 27.8% |  | 8.51% | 
22 | N#Cc1c(NCc2ccc(F)cc2)sc2c1CCN(C(=O)c1ccn[nH]1)C2 | 13.5% | 2030 nM | 91.4% | 
23 | CC(C)c1cc(C(=O)N2CCc3c(sc(NC(=O)c4ccccc4)c3C#N)C2)[nH]n1 | 39.3% |  | 14.6% | 
24 | N#Cc1c(NCc2cccc(F)c2)sc2c1CCN(C(=O)c1ccc(F)cc1)C2 | 36.5% | 2380 nM | 82% | 
25 | N#Cc1c(NCc2ccccc2)sc2c1CCN(C(=O)c1ccc(F)cc1)C2 | 26.1% | 600 nM | 91.5% | remaining at 0.5 h, 1 µM [1]: 49.4%; activity at 20 min, 10 µM (CYP1A2): 58.1%; Activity (Rattus norvegicus [6]): Active; activity at 20 min, 10 µM (CYP2C9): 5.48%; Activity (Rattus norvegicus [7]): inactive; activity at 20 min, 10 µM (CYP2C19): 9.94%; activity at 20 min, 10 µM (CYP3A4): 20%; activity at 20 min, 10 µM (CYP2D6): 42%
26 | N#Cc1c(NCc2ccc(F)cc2)sc2c1CCN(C(=O)c1ccc(F)cc1)C2 | 22.3% |  | 73.1% | 
27 | N#Cc1ccc(CNc2sc3c(c2C#N)CCN(C(=O)c2ccccc2)C3)cc1 | 3.16% |  | 36.8% | 
28 | COc1cccc(CNc2sc3c(c2C#N)CCN(C(=O)c2cccc(F)c2)C3)c1 | 33.2% |  | 15.5% | 
29 | COc1ccc(C(=O)N2CCc3c(sc(NCc4ccc(C#N)cc4)c3C#N)C2)cc1 | 41.5% |  | 10.9% | 
30 | N#Cc1c(NCc2cccc(F)c2)sc2c1CCN(C(=O)c1ccc(Cl)cc1)C2 | 60% |  | 41.2% | 
31 | Cc1ccc(C(=O)N2CCc3c(sc(NCc4ccc(F)cc4)c3C#N)C2)cc1 | 37.6% |  | 46.6% | 
32 | N#Cc1c(NCc2ccc(Cl)cc2)sc2c1CCN(C(=O)c1ccc(F)cc1)C2 | 25.3% |  | 35.2% | 
33 | COc1ccc(C(=O)N2CCc3c(sc(NCc4cccc(F)c4)c3C#N)C2)cc1 | 69% |  | 42.8% | IC50 [5]: 4730 nM
34 | N#Cc1c(NCc2cccc(F)c2)sc2c1CCN(C(=O)c1ccccc1)C2 | 44.2% | 5310 nM | 63.9% | 
35 | CC(C)c1cc(C(=O)N2CCc3c(sc(NCc4ccc(F)cc4)c3C#N)C2)[nH]n1 | 43.1% |  | 40.7% | 
36 | Cc1ccc(C(=O)N2CCc3c(sc(NCc4ccccc4)c3C#N)C2)cc1 | 24.3% | 4720 nM | 69.7% | 
